Data reported in PubChem BioAssay AID1745844 (Carcinogenic Potency Database (CPDB), 2022).
Active and inactive are the calls of the source. No rule for the calls is given here.

Tested on: rodent lifetime carcinogenesis bioassay, tumor incidence TD50
Assay: chronic cancer bioassays in animals – CPDB, compiled studies (AID 1745844)

For O=S(=O)(O)O, the TD50 (hamster, strain Syrian Golden, females, in drinking water, site: cecum, lesion: one or several types, types not named, dosed 108 weeks, study length 108 weeks) was 115 mg/kg/day (inactive), the TD50 (hamster, strain Syrian Golden, females, in drinking water, site: thyroid gland, lesion: adenoma, dosed 108 weeks, study length 108 weeks) was 124 mg/kg/day (inactive) and the TD50 (hamster, strain Syrian Golden, males, in drinking water, site: cecum, lesion: one or several types, types not named, dosed 119 weeks, study length 119 weeks) was 136 mg/kg/day (inactive). For the same molecule, the carcinogen call (hamster, strain Syrian Golden, males, in drinking water, site: liver, lesion: hemangioma, dosed 119 weeks, study length 119 weeks) was “negative (inactive)”, the TD50 (hamster, strain Syrian Golden, males, in drinking water, site: liver, lesion: hepatocellular adenoma, dosed 91 weeks, study length 91 weeks) was 87.5 mg/kg/day and the TD50 (hamster, strain Syrian Golden, males, in drinking water, site: liver, lesion: hepatocellular adenoma, dosed 104 weeks, study length 104 weeks) was 2590 mg/kg/day. It also gave a TD50 (hamster, strain Syrian Golden, males, in drinking water, site: liver, lesion: hepatocellular carcinoma, dosed 91 weeks, study length 91 weeks) of 464 mg/kg/day, a TD50 (hamster, strain Syrian Golden, males, in drinking water, site: liver, lesion: hepatocellular carcinoma, dosed 104 weeks, study length 104 weeks) of 181 mg/kg/day and a TD50 (hamster, strain Syrian Golden, males, in drinking water, site: liver, lesion: histiocytoma, malignant, dosed 104 weeks, study length 104 weeks) of 2580 mg/kg/day. For the same molecule, the TD50 (hamster, strain Syrian Golden, males, in drinking water, site: liver, lesion: reticulum-cell sarcoma, dosed 104 weeks, study length 104 weeks) was 2590 mg/kg/day, the TD50 (hamster, strain Syrian Golden, males, in drinking water, site: liver, lesion: several types, types named in the paper, dosed 91 weeks, study length 91 weeks) was 87.5 mg/kg/day and the carcinogen call (mouse, strain AKR, females, in drinking water, site: liver, lesion: one or several types, types not named, dosed 69 weeks, study length 69 weeks) was “negative (inactive)”. The carcinogen call (mouse, strain AKR, females, in drinking water, site: lung, lesion: one or several types, types not named, dosed 69 weeks, study length 69 weeks) was “negative (inactive)”, the carcinogen call (mouse, strain AKR, males, in drinking water, site: liver, lesion: hemangioma, dosed 69 weeks, study length 69 weeks) was “negative (inactive)” and the carcinogen call (mouse, strain AKR, males, in drinking water, site: lung, lesion: adenoma, dosed 69 weeks, study length 69 weeks) was “negative (inactive)”. It also gave a TD50 (mouse, strain C3H (MTV+), females, in drinking water, site: lung, lesion: adenoma, dosed 92 weeks, study length 92 weeks) of 109 mg/kg/day, a TD50 (mouse, strain CBA/Cb/Se, females, by gavage, site: liver, lesion: hepatoma, dosed 36 weeks, study length 74 weeks) of 6.27 mg/kg/day and a TD50 (mouse, strain CBA/Cb/Se, females, by gavage, site: lung, lesion: several types, types named in the paper, dosed 36 weeks, study length 74 weeks) of 3.35 mg/kg/day. The TD50 (mouse, strain CBA/Cb/Se, males, by gavage, site: liver, lesion: hepatoma, dosed 36 weeks, study length 84 weeks) was 8.43 mg/kg/day, the TD50 (mouse, strain CBA/Cb/Se, males, by gavage, site: lung, lesion: several types, types named in the paper, dosed 36 weeks, study length 84 weeks) was 5.1 mg/kg/day and the carcinogen call (mouse, strain ICRC x C3H (Jax), females, by gavage, site: liver, lesion: one or several types, types not named, dosed 73 weeks, study length 73 weeks) was “negative (inactive)”. The TD50 (mouse, strain ICRC x C3H (Jax), females, by gavage, site: lung, lesion: adenocarcinoma, dosed 73 weeks, study length 73 weeks) was 10.3 mg/kg/day, the carcinogen call (mouse, strain ICRC x C3H (Jax), males, by gavage, site: liver, lesion: one or several types, types not named, dosed 73 weeks, study length 73 weeks) was “negative (inactive)” and the TD50 (mouse, strain ICRC x C3H (Jax), males, by gavage, site: lung, lesion: adenocarcinoma, dosed 73 weeks, study length 73 weeks) was 79.5 mg/kg/day. The carcinogen call (mouse, strain Swiss albino, females, in drinking water, site: liver, lesion: hemangioma, dosed 95 weeks, study length 95 weeks) was “negative (inactive)”, the TD50 (mouse, strain Swiss albino, females, in drinking water, site: lung, lesion: adenocarcinoma, dosed 95 weeks, study length 95 weeks) was 146 mg/kg/day and the TD50 (mouse, strain Swiss albino, females, in drinking water, site: lung, lesion: adenoma, dosed 95 weeks, study length 95 weeks) was 26.7 mg/kg/day. It also gave a TD50 (mouse, strain Swiss albino, females, in drinking water, site: lung, lesion: several types, types named in the paper, dosed 95 weeks, study length 95 weeks) of 23.8 mg/kg/day, a TD50 (mouse, strain Swiss albino, males, in drinking water, site: liver, lesion: several types, types named in the paper, dosed 94 weeks, study length 94 weeks) of 78.4 mg/kg/day and a TD50 (mouse, strain Swiss albino, males, in drinking water, site: lung, lesion: adenocarcinoma, dosed 94 weeks, study length 94 weeks) of 74.2 mg/kg/day. The TD50 (mouse, strain Swiss albino, males, in drinking water, site: lung, lesion: adenoma, dosed 94 weeks, study length 94 weeks) was 23.1 mg/kg/day, the TD50 (mouse, strain Swiss albino, males, in drinking water, site: lung, lesion: several types, types named in the paper, dosed 94 weeks, study length 94 weeks) was 18.7 mg/kg/day and the TD50 (mouse, strain Swiss, both sexes, by gavage, site: lung, lesion: adenocarcinoma, dosed 95 weeks, study length 95 weeks) was 9.81 mg/kg/day. It also gave a TD50 (mouse, strain Swiss, both sexes, by gavage, site: lung, lesion: one or several types, types not named, dosed 54 weeks, study length 54 weeks) of 3.92 mg/kg/day, a TD50 (rat, strain Cb/Sc, females, by gavage, site: lung, lesion: several types, types named in the paper, dosed 68 weeks, study length 94 weeks) of 42.4 mg/kg/day and a TD50 (rat, strain Cb/Sc, males, by gavage, site: liver, lesion: several types, types named in the paper, dosed 68 weeks, study length 94 weeks) of 39.4 mg/kg/day. The TD50 (rat, strain Cb/Sc, males, by gavage, site: lung, lesion: several types, types named in the paper, dosed 68 weeks, study length 94 weeks) was 60.1 mg/kg/day.
C=C(C)C was tested, and the carcinogen call (mouse, strain B6C3F1, females, inhaled, site: any site (literature study), lesion: several types, types named in the paper, dosed 105 weeks, study length 105 weeks) was “negative (inactive)”, the TD50 (mouse, strain B6C3F1, females, inhaled, site: liver, lesion: hepatocellular adenoma + hepatoblastoma + hepatocellular carcinoma, dosed 105 weeks, study length 105 weeks) was 47800 mg/kg/day and the TD50 (mouse, strain B6C3F1, males, inhaled, site: any site (literature study), lesion: several types, types named in the paper, dosed 104 weeks, study length 104 weeks) was 8840 mg/kg/day (inactive). For the same molecule, the carcinogen call (rat, strain Fischer 344, females, inhaled, site: any site (literature study), lesion: several types, types named in the paper, dosed 104 weeks, study length 104 weeks) was “negative (inactive)”, the TD50 (rat, strain Fischer 344, females, inhaled, site: liver, lesion: hepatocellular adenoma + hepatoblastoma + hepatocellular carcinoma, dosed 104 weeks, study length 104 weeks) was 30100 mg/kg/day and the TD50 (rat, strain Fischer 344, males, inhaled, site: thyroid gland, lesion: follicular-cell carcinoma, dosed 104 weeks, study length 104 weeks) was 3550 mg/kg/day.
Clc1cccc(-c2cc(Cl)cc(Cl)c2)c1 gave a TD50 (rat, strain Sprague-Dawley, females, in feed, site: liver, lesion: hepatocellular adenoma, dosed 104 weeks, study length 104 weeks) of 59.3 mg/kg/day, a TD50 (rat, strain Sprague-Dawley, females, in feed, site: liver, lesion: hepatocellular carcinoma, dosed 104 weeks, study length 104 weeks) of 598 mg/kg/day and a TD50 (rat, strain Sprague-Dawley, females, in feed, site: liver, lesion: several types, types named in the paper, dosed 104 weeks, study length 104 weeks) of 53.9 mg/kg/day. For the same molecule, the TD50 (rat, strain Sprague-Dawley, males, in feed, site: liver, lesion: several types, types named in the paper, dosed 104 weeks, study length 104 weeks) was 872 mg/kg/day.
Work on O=C1c2cccc(O)c2C(=O)c2c(O)cccc21 yielded a TD50 (mouse, strain C3H/HeN, males, in feed, site: liver, lesion: hepatocellular adenoma, dosed 77 weeks, study length 77 weeks) of 201 mg/kg/day, a TD50 (mouse, strain C3H/HeN, males, in feed, site: liver, lesion: hepatocellular carcinoma, dosed 77 weeks, study length 77 weeks) of 336 mg/kg/day and a TD50 (mouse, strain C3H/HeN, males, in feed, site: liver, lesion: several types, types named in the paper, dosed 77 weeks, study length 77 weeks) of 201 mg/kg/day. It also gave a TD50 (rat, strain ACI, males, in feed, site: large intestine, lesion: several types, types named in the paper, dosed 69 weeks, study length 69 weeks) of 245 mg/kg/day.
Molecule C#CC(C)(C)NC(=O)c1cc(Cl)cc(Cl)c1 has a TD50 (mouse, strain B6C3F1, males, in feed, site: liver, lesion: hepatocellular carcinoma, dosed 78 weeks, study length 78 weeks) of 1480 mg/kg/day, a TD50 (mouse, strain B6C3F1, males, in feed, site: liver, lesion: hepatocellular carcinoma, dosed 104 weeks, study length 104 weeks) of 140 mg/kg/day and a TD50 (mouse, strain B6C3F1, males, in feed, site: liver, lesion: several types, types named in the paper, dosed 52 weeks, study length 52 weeks) of 1360 mg/kg/day. It also gave a TD50 (mouse, strain B6C3F1, males, in feed, site: liver, lesion: several types, types named in the paper, dosed 78 weeks, study length 78 weeks) of 700 mg/kg/day and a TD50 (mouse, strain B6C3F1, males, in feed, site: liver, lesion: several types, types named in the paper, dosed 104 weeks, study length 104 weeks) of 209 mg/kg/day.
For N#CS, the carcinogen call (rat, strain Fischer 344, females, in drinking water, site: liver, lesion: one or several types, types not named, dosed 112 weeks, study length 130 weeks) was “negative (inactive)”, the TD50 (rat, strain Fischer 344, males, in drinking water, site: liver, lesion: one or several types, types not named, dosed 112 weeks, study length 130 weeks) was 2760 mg/kg/day (inactive) and the TD50 (rat, strain Fischer 344, males, in drinking water, site: skin and subcutis, lesion: one or several types, types not named, dosed 112 weeks, study length 130 weeks) was 224 mg/kg/day (inactive).
With O=c1c(CO)c/c(=N/Nc2ccc(S(=O)(=O)O)c3ccccc23)c(=O)/c1=N/Nc1ccc(S(=O)(=O)O)c2ccccc12 the TD50 (mouse, strain Tuck, females, in feed, site: all sites, lesion: lymphosarcoma, dosed 80 weeks, study length 80 weeks) was 36.3 mg/kg/day (inactive), the TD50 (mouse, strain Tuck, females, in feed, site: liver, lesion: hyperplastic nodule, dosed 80 weeks, study length 80 weeks) was 8440 mg/kg/day (inactive) and the carcinogen call (mouse, strain Tuck, females, in feed, site: lung, lesion: adenoma, dosed 80 weeks, study length 80 weeks) was “negative (inactive)”. For the same molecule, the TD50 (mouse, strain Tuck, males, in feed, site: liver, lesion: hyperplastic nodule, dosed 80 weeks, study length 80 weeks) was 106000 mg/kg/day (inactive), the carcinogen call (mouse, strain Tuck, males, in feed, site: liver, lesion: liver-cell adenoma, dosed 80 weeks, study length 80 weeks) was “negative (inactive)” and the carcinogen call (mouse, strain Tuck, males, in feed, site: lung, lesion: adenoma, dosed 80 weeks, study length 80 weeks) was “negative (inactive)”.
With CS(=O)(=O)OCCCNCCCOS(C)(=O)=O the TD50 (mouse, strain B6C3F1, females, i.p., site: any site (literature study), lesion: several types, types named in the paper, dosed 52 weeks, study length 86 weeks) was 1.17 mg/kg/day (inactive), the TD50 (mouse, strain B6C3F1, females, i.p., site: lung, lesion: alveolar/bronchiolar adenoma + alveolar/bronchiolar carcinoma, dosed 52 weeks, study length 86 weeks) was 6.88 mg/kg/day and the TD50 (mouse, strain B6C3F1, males, i.p., site: all sites, lesion: lymphoma, dosed 52 weeks, study length 78 weeks) was 37.7 mg/kg/day (inactive). It also gave a TD50 (mouse, strain B6C3F1, males, i.p., site: any site (literature study), lesion: several types, types named in the paper, dosed 52 weeks, study length 78 weeks) of 2.07 mg/kg/day, a TD50 (rat, strain Sprague-Dawley, females, i.p., site: any site (literature study), lesion: several types, types named in the paper, dosed 36 weeks, study length 80 weeks) of 0.616 mg/kg/day and a TD50 (rat, strain Sprague-Dawley, females, i.p., site: liver, lesion: hepatocellular adenoma + hepatocellular carcinoma + neoplastic nodule, dosed 36 weeks, study length 80 weeks) of 5.01 mg/kg/day. The TD50 (rat, strain Sprague-Dawley, females, i.p., site: peritoneum, lesion: fibrosarcoma + sarcoma, NOS, dosed 36 weeks, study length 80 weeks) was 2.74 mg/kg/day, the TD50 (rat, strain Sprague-Dawley, males, i.p., site: any site (literature study), lesion: several types, types named in the paper, dosed 36 weeks, study length 80 weeks) was 1.3 mg/kg/day and the TD50 (rat, strain Sprague-Dawley, males, i.p., site: peritoneum, lesion: fibrosarcoma + fibroma + sarcoma, NOS, dosed 36 weeks, study length 80 weeks) was 0.915 mg/kg/day.
CNc1ncnc2nc[nH]c12 was tested, and the carcinogen call (mouse, strain Swiss CD-1, females, in drinking water, site: liver, lesion: hepatocellular tumor, dosed 26 weeks, study length 104 weeks) was “negative (inactive)”, the carcinogen call (mouse, strain Swiss CD-1, females, in drinking water, site: lung, lesion: one or several types, types not named, dosed 26 weeks, study length 104 weeks) was “negative (inactive)” and the carcinogen call (mouse, strain Swiss CD-1, males, in drinking water, site: liver, lesion: hepatocellular tumor, dosed 26 weeks, study length 106 weeks) was “negative (inactive)”. For the same molecule, the carcinogen call (mouse, strain Swiss CD-1, males, in drinking water, site: lung, lesion: one or several types, types not named, dosed 26 weeks, study length 106 weeks) was “negative (inactive)”.
